# Reference: US20260078099A1, “COMPOUND, PREPARATION METHOD THEREOF, AND LIPID NANOPARTICLE AND PHARMACEUTICAL COMPOSITION” (priority 2023, published 2026)
# Experiments:
# [1] = LNP size and PDI by dynamic light scattering; format: physicochemical; conditions: for PDI / Size (nm): mRNA LNP, cationic lipid/DSPC/cholesterol/PEG-lipid 50:10:38.5:1.5; for particle sizes by dynamic light scattering (FIG. 22): mRNA-loaded LNPs
# [2] = LNP encapsulation efficiency (Quant-it Ribogreen); format: physicochemical; conditions: mRNA LNP, cationic lipid/DSPC/cholesterol/PEG-lipid 50:10:38.5:1.5
# [3] = LNP zeta potential; format: physicochemical; conditions: mRNA LNP
# [4] = system: mice; test: Bioluminescent study, intramuscular injection of F-luc mRNA LNPs; format: in vivo; conditions: F-luc luminescence flux normalized to MC3; 0.25 mg/kg intramuscular, mice n=3, 6-hour time point
# In short: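 Mice (n=3) received LNP-formulated F-luc mRNA at 0.25 mg/kg intramuscularly. Bioluminescence was read 6 h after dosing. Test LNPs were made with an MC3 formulation, and PBS served as control in some groups.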
# [5] = Dose-response study, Luc mRNA intramuscular; format: in vivo; conditions: mRNA doses 0.25, 0.05 and 0.01 mg/kg
# Method: Samples containing firefly luciferase (Luc) mRNA were administered intramuscularly to evaluate protein expression. […] As the dose decreased, the injection site's expression proportion increased. A26, A47, and B38 maintained injection site flux levels of 0.3-3×10^10 (p/s) across all doses.
SMILES,PDI [1],Size (nm) [1] [nm],particle sizes by dynamic light scattering (FIG. 22) [1],Encapsulation efficiency (%) [2] [%],Zeta potential (mV) [3] [mV],Relative Total flux [4],dose-response of Luc expression [5]
CCCCCCCCNC(=O)C(CCCCCCCC)N(CCCN(C)C)C(=O)CCCCCCC(=O)OC(CCCCCCCC)CCCCCCCC (stereo not drawn) [Compound A26],0.11,94.21,approximately 100 nm,94.09,2.30,A (A: ≥2),clear dose-response gradient
CCCCCCC(CCCCCC)OC(=O)CCCCCCCCCNC(=O)C(CCCCCCCCCC(=O)OC(CCCCCC)CCCCCC)N(CCCN1CCN(C)CC1)C(=O)CCCN1CCN(C)CC1 (stereo not drawn) [Compound E9],0.593,91.81,,82.13,−15.91,C (C: ≥0.1 and <1),
CCCCCCC(CCCCCC)OC(=O)CCCCCCCCCNC(=O)C(CCCCCCCCCC(=O)OC(CCCCCC)CCCCCC)N(CCN1CCN(CCO)CC1)C(=O)CCN1CCN(CCO)CC1 (stereo not drawn) [Compound E10],0.185,104.5,,69.71,−16.71,C (C: ≥0.1 and <1),
CCCCCCC(CCCCCC)OC(=O)CCCCCCCCCNC(=O)C(CCCCCCCCCC(=O)OC(CCCCCC)CCCCCC)N(CCCN1CCN(CO)CC1)C(=O)CCCN1CCN(CCO)CC1 (stereo not drawn) [Compound E11],0.158,85.75,,93.77,0.85,B (B: ≥1 and <2),
"CCCCC/C=C\C/C=C\CCCCCCCCC(CCCCCCCC/C=C\C/C=C\CCCCC)OC(=O)CCCN(C)C [DLin-MC3, reference compound]",0.036,87.75,,95.24,−3.25,B (B: ≥1 and <2),
"CCCCCCCCCCCOC(=O)CCCCCN(CCO)CCCCCCCC(=O)OC(CCCCCCCC)CCCCCCCC [SM-102, reference compound]",0.058,89.08,approximately 100 nm,96.25,−1.23,A (A: ≥2),
